Data: patent US9321785B2, “Methods for the treatment or prophylaxis of thrombosis or embolism” (IPCA Laboratories Limited, priority 2010, dated 2016)
Read-outs that look alike come from different tables or passages of the source.

Columns and labels:
[1] = cited from earlier work
[2] = rat; cited from earlier work
[3] = test system: ADP induced platelet aggregation; conditions: cited from earlier work; for Time until 50% inhibition of ADP induced platelet aggregation is reached: 5 μM ADP ex vivo, LTA
[4] = test system: recurrent ischemic events / major bleeding events; conditions: cited from earlier work
[5] = test system: venous thrombus in vena cava; assay: Venous thrombosis on a screw thread (antithrombotic activity); format: in vivo, rat; conditions: for % inhibition / Weight of thrombus: thrombus after 5 h
Excerpt: The antithrombotic activity has also been studied in the test of venous thrombosis on a screw thread described by Kumada T. et al. in Thromb. Res 18 p. 189 (1980). Female rats of the same type as those previously described, in groups of 10 animals, were anesthetized with diethyl ether and their vena cava was isolated after abdominal incision. […] The thrombi formed rapidly and five hours later, under pentobarbital anesthesia, the abdomen is reopened and ligatures are placed above and below the screw thread which is withdrawn after longitudinal incision of the vein and the isolated thrombus is weighed. […] The control is without drug.

[6] = test system: ADP induced platelet aggregation (platelet-rich plasma); assay: Measurement of platelet aggregation with ADP, ex vivo after oral administration; format: in vivo, rat; conditions: 2 h before sampling, ADP 2.5 μM
Experimental: The platelet aggregation inhibiting activities and the antithrombotic activities of the compounds were studied in the rat by standard methods. The activity on the aggregation of plates induced by ADP or collagen was determined ex-vivo. […] The aggregating solutions used were: a 500 μM aqueous solution of ADP (final concentration 2.5 μM). The aggregation of the platelets was monitored as described by Born (Nature 194, p. 927 […]), which is incorporated herein by reference, using a Coultronics® aggregometer at a temperature of 37° C. and agitation of 900 rpm. For aggregation with ADP, the aggregometer generates a curve representing a platelet aggregation as measured by a change in optical density. The height of this curve is defined as the height of aggregation. […] The controls are without drug.

[7] = Activity of clopidogrel metabolite; conditions: metabolite in the clopidogrel pathway
Excerpt: Thus, the influence that the patient's ability to metabolize has on efficacy is reduced.

[8] = combined with Aspirin therapy, patients with ACS
[9] = patients at high risk of vascular events

COC(=O)[C@H](c1ccccc1Cl)N1CCc2sccc2C1 [Clopidogrel, (+)-(S)-methyl 2-(2-chlorophenyl)-2-(6,7-dihydrothieno[3,2-c]pyridin-5(4H)-yl)acetate]
Fraction converted to clopidogrel acid in vivo [1]: 90% | Lethal dose [2]: about 5000 mg per kg | Time until 50% inhibition of ADP induced platelet aggregation is reached ([3]; dose 600 mg): 2 h | Inhibition of ADP induced platelet aggregation ([3]; dose 900 mg, 5 μM ADP): 60% | Inhibition of platelet aggregation ([3]; dose 900 mg, 20 μM ADP ex vivo): less than 50% | Time until 50% inhibition of ADP induced platelet aggregation is reached ([3]; loading dose 300 mg): 4 to 6 h | Absolute risk reduction (ARR), recurrent ischemic events [4, 8]: about 2.1% | Further reduction of the risk of recurrent ischemic events [4, 8]: 20%

CC(=O)Oc1ccccc1C(=O)O [Aspirin]
Absolute risk increase (ARI), major bleeding events [4, 9]: about 0.5% | Absolute risk reduction (ARR), recurrent ischemic events [4, 9]: about 2% | Increase in the odds of major bleeding events [4, 9]: about 60% | Reduction of the risk of recurrent ischemic events [4, 9]: 22%

COC(=O)[C@H](c1ccccc1Cl)N1CCC2SC(=O)C=C2C1 (stereo partly drawn) [Thiolactone, Methyl(S)-2(2-chlorophenyl)-2-(2,4,5,6,7,7a-hexahydrothieno[3,2-c]-5-pyridin-2-one)acetate]
Antithrombotic activity compared with clopidogrel ([5]; Table 2): superior to clopidogrel | % inhibition ([5]; dose 12.5 mg/kg (base 12.5 mg/kg)): 76% | Weight of thrombus ([5]; dose 12.5 mg/kg (base 12.5 mg/kg), control 4.18 ± 0.31): 1.18 ± 0.18 mg | inhibition at 2.5 mg/kg ([6]; Rattus norvegicus, Platelet, oral dose 2.5 mg/kg (base 2.5 mg/kg)): 95% | % aggregation (height) ([6]; oral dose 2.5 mg/kg (base 2.5 mg/kg), control 94 ± 1): 4 ± 2%

O=C(O)[C@H](c1ccccc1Cl)N1CCc2sccc2C1 [Formula IV]
Activity of the metabolite [7]: inactive

COC(=O)[C@H](c1ccccc1Cl)N1CCc2sccc2C1 [Clopidogrel bisulphate]
% inhibition ([5]; dose 10 mg/kg (base 7.69 mg/kg)): 67% | Weight of thrombus ([5]; dose 10 mg/kg (base 7.69 mg/kg), control 3.9 ± 0.3): 1.26 ± 0.19 mg | % inhibition ([5]; dose 20 mg/kg (base 15.38 mg/kg)): 69% | Weight of thrombus ([5]; dose 20 mg/kg (base 15.38 mg/kg), control 3.9 ± 0.3): 1.20 ± 0.13 mg | inhibition at 12.5 mg/kg ([6]; Rattus norvegicus, Platelet, oral dose 12.5 mg/kg (base 9.813 mg/kg)): 82% | inhibition at 25 mg/kg ([6]; Rattus norvegicus, Platelet, oral dose 25 mg/kg (base 19.225 mg/kg)): 89% | % aggregation (height) ([6]; oral dose 12.5 mg/kg (base 9.813 mg/kg), control 103 ± 3): 19 ± 4% | % aggregation (height) ([6]; oral dose 25 mg/kg (base 19.225 mg/kg), control 103 ± 3): 11 ± 1%
